Assay results: patent publication US11072592B2, “Small molecules that enable cartilage rejuvenation” (The Regents of the University of California, priority 2015, dated 2021)
“Also recorded” adds a separate entry of the source.

Tests used:
Assay type in all cases: cell-based
[1] = tested on: MAPK, AKT, NF-κB pathways; test: Western blot of MAPK, AKT and NF-κB signaling in adult pig articular chondrocytes; conditions: 24 hours
Protocol: (§1) FIGS. 30A-30B. […] (FIG. 30A) Adult pig articular chondrocytes were cultured for 24 hours with the indicated cytokines or RCGD 423 and the levels of pSTAT3 and MYC were measured with respect to histone H3. Representative data for other proteins in the MAPK (p38 and MEK1/2), AKT (phospho-AKT; pAKT) or NF-KB (NF-KB p65) are also shown. (FIG. 30B) Levels of transcription of genes indicative of a catabolic response were determined via quantitative PCR in adult pig articular chondrocytes treated with OSM, IL-6, TNF-α, LIF or RCGD 423. Data are represented at mean±SD.
(§2) Cartilage degeneration is generally considered a feed-forward process, in which small losses of chondrocytes result in microenvironmental changes including induction of an inflammatory response and other pro-catabolic events (Hunziker, 2002). In turn, these alterations in the joint milieu promote production of matrix degrading proteins including MMPs (collagenases) and proteins of the ADAMTS family (aggrecanases). LIF has been implicated in promoting this cycle of matrix destruction during the pathogenesis of osteoarthritis (Hui et al., 2000; Lotz et al., 1992), although its role in this process has been controversial. In order to better understand the mechanism of action of LIF, RCGD 423 and known pro-inflammatory cytokines in the promotion of degeneration, we stimulated adult pig articular chondrocytes with these molecules and quantitated the levels of activated downstream proteins that mediate the cellular signaling response (FIG. 30A).
(§3) Treated and non-treated ells were lysed in RIPA Lysis and Extraction Buffer (Pierce, Rockford, Ill.) containing protease inhibitors (Pierce) followed by sonication with a 15-second pulse at a power output of 2 using the VirSonic 100 (SP Industries Company, Warminster, Pa.). Protein concentrations were determined by BCA protein assay (Pierce). Proteins were resolved with SDS-PAGE utilizing 4-15% Mini-PROTEAN TGX Precast Gels and transferred to Trans-Blot Turbo Transfer Packs with a 0.2-μm pore-size nitrocellulose membrane. The SDS-PAGE running buffer, 4-15% Mini-PROTEAN TGX Precast Gels, Trans-Blot Turbo Transfer Packs with a 0.2-μm pore-size nitrocellulose membrane were purchased from Biorad (Hercules, Calif.). Nitrocellulose membranes were blocked in 5% nonfat milk in 0.05% (v/v) Tween 20 (PBST) (Corning, Manassas, Va.). Membranes were then incubated with primary antibodies phospho-STAT3 (#9131), MYC (#5605), NF-κB p65 (#D14E12), pAKT (#9272) Histone 3 (#9715) from Cell Signaling, (Danvers, Mass.); MEK1/2 (ab70613) and p38 (ab795) from Abcam (Cambridge, Mass.) overnight. After washing in PBS containing 0.05% (v/v) Tween 20 (PBST), membranes were incubated with Goat anti-Rabbit IgG (H+L) Secondary Antibody (Thermo Scientific Rockford, Ill.). After washing, membranes were developed with the Clarity Western ECL Blotting Substrate (Hercules, Calif.).

[2] = tested on: MMP13, ADAMTS4 and ADAMTS5; test: Quantitative PCR of catabolic genes in adult pig articular chondrocytes
Protocol: as §1, §2
Total RNA was extracted using RNeasy Micro Kit (QIAGEN, Valencia, Calif.) according to the manufacturer's protocol. Quantitative reverse transcription PCR was performed using Bio-Rad T100 Thermal Cycler (Bio-Rad, Hercules, Calif.). Primer sequences are available upon request.

[3] = tested on: pSTAT3 and MYC; test: Western blot of pSTAT3 and MYC in adult pig articular chondrocytes; conditions: for levels of MYC / levels of pSTAT3: adult pig articular chondrocytes, treated vs untreated, relative to histone H3
From the text: Only early passages of chondrocytes (passage 0-2) were used for experimentation to avoid de-differentiation and loss of cartilage phenotype (Wu et al., 2014). Cartilage explants were made using 1, 2 or 8 mm biopsy punch and wet weight of each explant determined prior to experimentation. For cell isolation cartilage tissue was digested as described previously (Wu et al., 2015). Postnatal paraffin embedded joint and growth plate specimens were kindly donated by Dr Marcel Karperien from the University of Twente (Netherlands) and Dr Nick Bernthal from University of California Los Angeles. All donated material was anonymous and carried no personal identifiers. Cell culture reagents were purchased from Life Technologies, Inc. (Grand Island, N.Y.). Growth factors LIF, OSM, IL-6, TNF-α, IL-1β were purchased from Life Technologies, Inc (Grand Island, N.Y.). STATTIC, 10058-F4, SCl44 hydrochloride, and CP-690550 were purchased from Sigma Aldrich (St. Louis, Mo.). RCGD 423 (N-(4-Bromophenyl)-4-phenyl-1,3-thiazol-2-amine) was synthesized and provided by MolPort (Riga, Latvia). Fetal, adult and pig chondrocytes were cultured in DMEM F12 medium containing 10% (vol/vol) fetal bovine serum and 1% Penicillin-Streptomycin (vol/vol) at 37° C. in a humidified atmosphere of 95% aid and 5% CO2. Media was replenished with DMEM F12 medium containing 1% (vol/vol) fetal bovine serum and 1% Penicillin-Streptomycin (vol/vol) once treatments were added. For 3-dimensional (3D) cell cultures adult human articular chondrocytes were incubated with or without RCGD 423 using 10% solution of Mebiol® hydrogel from Cosmo Bio (Carlsbad, Calif.) in X-vivo 15 serum free medium from Lonza (Walkersville, Md.) as described previously (Wu et al., 2014).
as §3

[4] = tested on: chondrocyte cultures; test: Toxicity in chondrocyte cultures
Protocol: In a clinical setting, treatment with exogenous growth factors would present a difficult and expensive strategy. To address this, our group designed a high throughput screen to identify small molecule modulators of chondrogenic differentiation based on the prevention of the hypertrophy-associated marker collagen X (COLX). […] Importantly, the stimulatory effect of CRMs on p-STAT3 and c-MYC was reversible; protein levels of both p-STAT-3 and c-MYC decreased 48 hours after CRM-398 or -423 withdrawal (data not shown). Identification of such compounds can not only allow us to control differentiation of chondrocytes, but also manipulate the expression of STAT3 and c-MYC to achieve rejuvenation of adult chondrocytes. CRM-398 and -423 can be tested in parallel with LIF and their effects on adult articular chondrocyte activation can be assessed as described herein.

[5] = pig adult articular chondrocytes, 1 μM

Row | Compound | NF-κB protein [1] | activation of AKT [1] | activation of the MAPK pathway [1] | transcription of matrix degrading enzymes (MMP13, ADAMTS4 and ADAMTS5) [2] | levels of MYC [3] | levels of pSTAT3 [3] | levels of c-MYC [3, 5] | levels of p-STAT3 [3, 5] | toxicity in chondrocyte cultures [4]
1 | Brc1ccc(Nc2nc(-c3ccccc3)cs2)cc1 [RCGD 423, N-(4-Bromophenyl)-4-phenyl-1,3-thiazol-2-amine] | did not activate AKT or stabilize | did not activate; also recorded: no activation | weakly activating | no upregulation; also recorded: does not promote catabolism | strong increases | strong increases | elevated | elevated | no toxicity
2 | LIF: interleukin 6 (IL-6)-class cytokine |  | stimulated the activation; also recorded: strong activation | weaker response | neither cytokine resulted in substantial transcriptional upregulation | increase | increase |  |  | 
